Experimental data taken from US20120029054A1, “RNA Interference Mediated Inhibition of GATA Binding Protein 3 (GATA3) Gene Expression Using Short Intefering Nucleic Acid (siNA)” (Merck Sharp & Dohme Corp., priority 2009, published 2012).

How the values were obtained:
GATA3 mRNA [1] = assay: GATA3 mRNA knock-down (Taqman qRT-PCR) after RNAiMax transfection of human MCF7 cells; screen and IC50 dose response; format: cell-based; conditions: for % KD Human: 10 nM siNA, 24 hrs; for % KD GATA3 mRNA at 10 nM: Table 4, MCF7 cells; for % KD GATA3 10 nM: Table 5, MCF7 cells
Summary of the method: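 MCF7 cells (5000/well, 24 h) transfected with siNA–RNAiMax complexes at 10 nM final siNA for 24 h without media change. GATA3 mRNA measured by TaqMan qRT-PCR, alongside β-actin and GAPDH probes. % knock-down by comparative Ct (2^−ΔΔCt) relative to non-targeting control siNA.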

GATA3 mRNA [2] = assay: GATA3 mRNA knock-down (Taqman qRT-PCR) after RNAiMax transfection of mouse RAG cells; format: cell-based; conditions: 10 nM siNA, 24 hrs, average of 2 experiments
Summary of the method: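 Murine RAG cells, 5000/well, transfected 24 h after plating with siNA (10 nM final) complexed with RNAiMax, harvested after 24 h. GATA3 mRNA quantified by TaqMan qRT-PCR with GAPDH reference; % knock-down by comparative Ct (2^−ΔΔCt) versus non-targeting control siNA.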

[3] = mean ± S.D., * Hs00231122_m1 Taqman Assay
[4] = mean ± S.D., ** Hs00922328_m1 Taqman Assay

## 30263-DC: GATA3 siNA duplex, site 817: sense B cGccucuGcuucAuGGAuc TTB (SEQ 79), antisense GAUccAuGAAGcAGAGGcGUU (SEQ 80) (sense CGCCUCUGCUUCAUGGAUCTT; antisense GAUCCAUGAAGCAGAGGCGUU; chemistry not fully specified)
GATA3 mRNA [1]; MCF7 cells, * Hs00231122_m1 Taqman Assay
  % KD Human: 74 ± 5* %
GATA3 mRNA [1]; MCF7 cells, ** Hs00922328_m1 Taqman Assay
  % KD Human: 60 ± 10** %
GATA3 mRNA [1]; MCF7 cells, mean ± S.D.
  IC50: 0.104 ± 0.041 nM
GATA3 mRNA [1]; [3]
  % KD GATA3 mRNA at 10 nM: 74 ± 5* %
  % KD GATA3 10 nM: 74 ± 5* %
GATA3 mRNA [1]; [4]
  % KD GATA3 mRNA at 10 nM: 60 ± 10** %
  % KD GATA3 10 nM: 60 ± 10** %
GATA3 mRNA [2]
  % KD Mouse: 9 ± 13%
